Data published in PMC11415492 (Nature Communications, 2024).
Values joined by “and” are separate entries in the source; they are usually repeats but may differ in a detail not shown here. Equal entries are not always repeated. Structures can show the parent of a compound that is named as a salt. Where two headings read alike, the source gives them in different places.

Tests used:
[1] = Pharmacokinetic study in mice (plasma and brain), with estimated free drug concentrations; type: in vivo, mouse; conditions: for AUC(0-t) / Cmax / concentration at 0.25 h / concentration at 0.5 h / concentration at 1 h / concentration at 2 h / AUC(0-inf): male, C57BL/6, mouse, 10 mg/kg; for AUC(0-t) / Cmax / concentration at 0.25 h / concentration at 0.5 h / concentration at 1 h / concentration at 2 h / AUC(0-inf) / Tmax / half-life / Vd/F: sc; for concentration at 0.25 h / concentration at 0.5 h / concentration at 1 h / concentration at 2 h: mice, 10 mg/kg s.c., individual animals; for Tmax / half-life / Vd/F: mouse; for half-life: read-out: T1/2z (converted); for Vd/F: read-out: VZ/F
[2] = system: male Fisher F-344 rats; assay: Morphine intravenous self-administration; type: in vivo, rat; conditions: for self-administration per session, individual animals (Fig. S9a): 40 mg/kg
[3] = biological target: T1, rKOR (Rattus norvegicus, UniProt P34975); assay: G protein activation BRET assay (GαoB); type: cell-based; conditions: for EC50: HEK-293T
T1 construct: signal peptide (N); expressed in transfected cells; host or cells: HEK-293T, transient (PEI)
T1 sequence (P34975 whole entry): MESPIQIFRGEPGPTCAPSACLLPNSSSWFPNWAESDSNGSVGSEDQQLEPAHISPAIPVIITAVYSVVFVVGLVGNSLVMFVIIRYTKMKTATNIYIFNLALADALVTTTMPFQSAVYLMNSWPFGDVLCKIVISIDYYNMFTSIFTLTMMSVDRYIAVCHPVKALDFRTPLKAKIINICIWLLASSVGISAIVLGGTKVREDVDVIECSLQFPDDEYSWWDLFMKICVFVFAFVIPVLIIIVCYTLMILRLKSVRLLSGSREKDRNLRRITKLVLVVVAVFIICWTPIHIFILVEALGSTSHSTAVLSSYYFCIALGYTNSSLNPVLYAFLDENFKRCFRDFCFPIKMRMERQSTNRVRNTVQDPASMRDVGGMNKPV

[4] = biological target: T2, human nicotinic acetylcholine receptor (nAChR α3β4) (Homo sapiens, UniProt P30926+P32297); assay: nAChR α3β4 inhibition, electrophysiology (commercial); type: cell-based
T2 construct: purchased contracted research organization (eurofinsdiscoveryservices.com) item CYL8057IF2
T2 sequence (P32297 32-505): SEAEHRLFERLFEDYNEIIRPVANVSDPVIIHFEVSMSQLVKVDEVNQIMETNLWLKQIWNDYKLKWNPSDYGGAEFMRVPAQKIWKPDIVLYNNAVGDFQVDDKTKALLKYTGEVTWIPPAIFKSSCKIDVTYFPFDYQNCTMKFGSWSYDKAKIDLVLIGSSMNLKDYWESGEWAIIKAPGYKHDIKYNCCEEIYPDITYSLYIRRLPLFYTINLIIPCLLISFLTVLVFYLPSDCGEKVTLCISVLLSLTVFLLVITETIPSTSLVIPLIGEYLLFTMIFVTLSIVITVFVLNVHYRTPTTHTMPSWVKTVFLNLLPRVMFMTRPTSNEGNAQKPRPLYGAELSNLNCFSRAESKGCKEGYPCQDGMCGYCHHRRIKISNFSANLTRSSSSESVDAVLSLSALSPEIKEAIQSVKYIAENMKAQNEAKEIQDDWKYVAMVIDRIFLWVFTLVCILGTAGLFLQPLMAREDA
T2 sequence (P30926 22-498): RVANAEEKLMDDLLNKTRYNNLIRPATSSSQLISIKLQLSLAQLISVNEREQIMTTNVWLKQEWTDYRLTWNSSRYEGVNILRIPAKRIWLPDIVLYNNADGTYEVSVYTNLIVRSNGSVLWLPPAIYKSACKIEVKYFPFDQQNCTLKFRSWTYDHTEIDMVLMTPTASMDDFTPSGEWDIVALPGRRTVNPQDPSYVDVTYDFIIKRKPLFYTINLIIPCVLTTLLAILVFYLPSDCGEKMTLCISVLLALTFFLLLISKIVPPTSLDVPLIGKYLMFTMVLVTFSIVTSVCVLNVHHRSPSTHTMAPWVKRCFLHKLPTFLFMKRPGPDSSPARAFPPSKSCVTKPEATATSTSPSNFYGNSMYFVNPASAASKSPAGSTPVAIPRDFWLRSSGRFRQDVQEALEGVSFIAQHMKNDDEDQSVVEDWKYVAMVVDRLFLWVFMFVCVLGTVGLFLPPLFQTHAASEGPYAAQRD

[5] = biological target: T3, hSERT (Homo sapiens, UniProt P31645); assay: hSERT inhibition assay (APP+ fluorescence uptake); type: cell-based
T3 construct: expressed in transfected cells
T3 sequence (P31645 whole entry): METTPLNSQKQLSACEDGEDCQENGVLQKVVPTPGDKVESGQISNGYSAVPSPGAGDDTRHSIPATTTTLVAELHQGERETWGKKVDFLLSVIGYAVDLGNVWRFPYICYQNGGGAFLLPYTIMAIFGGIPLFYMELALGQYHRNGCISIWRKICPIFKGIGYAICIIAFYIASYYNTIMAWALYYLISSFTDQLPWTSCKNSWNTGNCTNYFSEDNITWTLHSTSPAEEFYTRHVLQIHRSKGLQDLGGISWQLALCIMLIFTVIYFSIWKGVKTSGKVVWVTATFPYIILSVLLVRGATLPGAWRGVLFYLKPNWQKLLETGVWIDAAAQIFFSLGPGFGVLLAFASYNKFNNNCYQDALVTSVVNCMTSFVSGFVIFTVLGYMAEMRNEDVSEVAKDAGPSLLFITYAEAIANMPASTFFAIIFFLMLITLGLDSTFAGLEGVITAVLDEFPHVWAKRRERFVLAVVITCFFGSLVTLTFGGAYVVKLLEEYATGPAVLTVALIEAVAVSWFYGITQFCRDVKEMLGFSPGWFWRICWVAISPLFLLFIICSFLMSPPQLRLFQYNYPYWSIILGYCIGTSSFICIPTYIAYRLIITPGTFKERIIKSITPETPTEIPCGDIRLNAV
Experimental: Stably transfected hSERT-HEK cellular cultures were maintained in Dulbecco’s Minimal Essential Medium (DMEM) with GlutaMAX (Gibco-Thermo Fisher Scientific, Waltham, MA) with the following additions: 10% (v/v) Fetal Bovine Serum (FBS, Atlanta Biologicals, Flowery Branch, GA), 100 U/mL Penicillin 10 μg/mL Streptomycin (Gibco-Thermo Fisher Scientific, Waltham, MA), and 500 μg/mL Geneticin (G418) (Sigma Aldrich, St. Louis, MO). Singly transfected cells were seeded at a density of 0.09 × 10^6 cells/well in poly-D-Lysine (Sigma Aldrich, St. Louis, MO) coated white solid-bottom 96-well plates (Greiner Bio-One, Kremsmünster, Austria). Cells were grown for 44 h in aqueous media at 37 °C under 5% CO2 atmosphere. […] A final solution of 120 μL of PBS was finally added to all corresponding wells for cell maintenance before measuring fluorescence uptake (BioTek H1MF plate reader (BioTek Instruments, Winooski, VT), APP+ excitation and emission wavelengths 436 and 500 nm). Recorded inhibitor values were first subtracted from vehicular values to quantify the respective fluorescence uptake. Data were analyzed using the dose-response-inhibitor nonlinear curve fitting model (log[inhibitor] vs response (four parameters) in Graphpad Prism 10 (Graphpad Software, La Jolla, CA).

[6] = biological target: T4, mMOR (Mus musculus, UniProt P42866); assay: G protein activation BRET assay; type: cell-based; conditions: for Fig. S5h concentration-response data point: Log [Drug], single replicate values
T4 construct: expressed in transfected cells; host or cells: HEK-293T, transient (PEI)
T4 sequence (P42866 whole entry): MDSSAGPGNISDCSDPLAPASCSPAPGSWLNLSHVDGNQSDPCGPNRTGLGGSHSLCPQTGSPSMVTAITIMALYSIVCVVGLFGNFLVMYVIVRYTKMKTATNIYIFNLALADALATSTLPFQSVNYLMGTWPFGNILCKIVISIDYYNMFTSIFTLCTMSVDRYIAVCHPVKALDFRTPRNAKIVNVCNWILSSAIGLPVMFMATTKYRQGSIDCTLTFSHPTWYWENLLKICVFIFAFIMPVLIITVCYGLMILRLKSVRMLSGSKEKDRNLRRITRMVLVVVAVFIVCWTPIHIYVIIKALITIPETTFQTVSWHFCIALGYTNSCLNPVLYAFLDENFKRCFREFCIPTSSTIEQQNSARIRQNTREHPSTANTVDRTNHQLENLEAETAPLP

[7] = brain, male C57BL/6 mice, single s.c. 10 mg/kg
[8] = plasma, read-out: Free Plasma Concentration
[9] = plasma, read-out: Plasma Concentration (total)
[10] = plasma, male C57BL/6 mice, s.c. 10 mg/kg
[11] = plasma, male C57BL/6 mice, single s.c. 10 mg/kg
[12] = brain, male C57BL/6 mice, s.c. 10 mg/kg

Which AUC(0-t) [1, 7] does the source give for CCC1CC2CC3c4[nH]c5ccc(O)cc5c4CCN(C2)C13 (stereo not drawn) [Noribogaine, Noribogaine hydrochloride] here?
Its AUC(0-t) is 11700 ng·h/mL and 39.4 µM·h.

And the Cmax [1, 7]?
Its Cmax is 17.2 µM.

What about the concentration at 0.25 h [1, 8] of the same compound?
The concentration at 0.25 h was 2.91 µM.

And the concentration at 0.25 h [1, 9]?
Its concentration at 0.25 h is 4.84 µM.

And the concentration at 0.5 h [1, 8]?
The concentration at 0.5 h was 3.34 µM.

What about the concentration at 0.5 h [1, 9] of the same compound?
The concentration at 0.5 h was 5.36 µM.

And the concentration at 1 h [1, 8]?
The concentration at 1 h was 1.97 µM.

What about the concentration at 1 h [1, 9] of the same compound?
Its concentration at 1 h is 4.03 µM.

And the concentration at 2 h [1, 8]?
Its concentration at 2 h is 1.28 µM.

What about the concentration at 2 h [1, 9] of the same compound?
Its concentration at 2 h is 3.43 µM.

What about the AUC(0-inf) [1, 10] of the same compound?
The AUC(0-inf) was 5230 ng·h/mL.

What about the AUC(0-t) [1, 10] of the same compound?
Its AUC(0-t) is 5220 ng·h/mL.

And the Cmax [1, 10]?
The Cmax was 1980 ng/mL.

What about the AUC(0-inf) [1, 11] of the same compound?
Its AUC(0-inf) is 5230 ng·h/mL.

What about the AUC(0-t) [1, 11] of the same compound?
The AUC(0-t) was 5220 ng·h/mL and 17.6 µM·h.

What about the Cmax [1, 11] of the same compound?
Its Cmax is 1980 ng/mL and 6.68 µM.

And the Tmax [1, 12]?
The Tmax was 0.5 h.

And the half-life [1, 12]?
The half-life was 1.71 h.

What about the Vd/F [1, 12] of the same compound?
The Vd/F was 2.04 L/kg.

And the Tmax [1, 10]?
Its Tmax is 0.5 h.

What about the half-life [1, 10] of the same compound?
The half-life was 2.76 h.

What about the Vd/F [1, 10] of the same compound?
Its Vd/F is 7.62 L/kg.

What about the CLf [1, 10] of the same compound?
Its CLf is 31.87 mL/min/kg.

What about the “effect on morphine self-administration” value ([2]; 40 mg/kg i.p.) of the same compound?
Its value is “partial, but statistically significant, suppression of morphine intake on days 2 and 3, returning to pre-treatment level of morphine intake on day 5”.

And the “self-administration per session, individual animals (Fig. S9a)” value (shortened to “self-administration per session”) ([2]; session 1)?
The value was 0 (2×) and 4 (2×) and 8 and 6 (2×) and 2.

And the “self-administration per session” value ([2]; session 2)?
The value was 7 and 19 and 24 and 41 and 27 (2×) and 15 (2×).

And the “self-administration per session” value ([2]; session 3)?
The value was 17 and 21 and 50 and 28.

What about the “self-administration per session” value ([2]; session 5) of the same compound?
Its value is 49 and 40 and 50 (2×) and 36 (2×) and 31 and 21.

What about the “self-administration per session” value ([2]; session 6) of the same compound?
The value was 50 (5×) and 42 and 26 and 19.

What about the “self-administration per session” value ([2]; session 7) of the same compound?
The value was 29 (2×) and 15 and 50 (4×) and 17.

And the “self-administration per session” value ([2]; session 8)?
Its value is 30 (2×) and 50 (4×) and 28 and 26.

And the “self-administration per session” value ([2]; session 9)?
The value was 26 and 35 and 50 (3×) and 22 and 28 and 13.

And the “self-administration per session” value ([2]; session 10)?
The value was 34 and 25 and 50 (3×) and 20 and 41 and 14.

What about the “self-administration per session” value ([2]; session 11) of the same compound?
Its value is 33 and 19 and 50 (3×) and 9 and 26 and 3.

And the “self-administration per session” value ([2]; session 12)?
Its value is 50 (5×) and 14 and 40 and 19.

What about the “self-administration per session” value ([2]; session 13) of the same compound?
Its value is 50 (3×) and 23 and 33 and 28.

What about the “self-administration per session” value ([2]; session 14) of the same compound?
Its value is 50 (3×) and 21 and 38 and 17.

And the “self-administration per session” value ([2]; session 15)?
Its value is 50.

What about the EC50 [3] of the same compound?
The EC50 was 6.1 µM.

What about the EC50 ([3]; (95% CI)) of the same compound?
The EC50 was 6.24 µM.

And the Emax ([3]; normalized to Emax of U-50,488)?
Its Emax is 52%.

And the IC50 [4]?
The IC50 was 5 µM.

What about the IC50 ([4]; electrophysiology, n = 1, (95% CI)) of the same compound?
Its IC50 is 4.96 µM.

And the Emax [5]?
Its Emax is 104%.

And the Emax [6]?
The Emax was 19%.

What about the EC50 ([6]; (95% CI)) of the same compound?
Its EC50 is 9.11 µM.

What about the “Fig. S5h concentration-response data point” value ([6]; M = -4) of the same compound?
The value was 24.8885 and 26.6264 and 27.7428 and 17.4963 and -8.212 and 30.4244 and 10.6283 and 6.222 and 21.9832.

And the “Fig. S5h concentration-response data point” value ([6]; M = -5)?
Its value is 8.23 and 17.0849 and 17.7259 and 22.4715 and 22.153 and 9.821 and 3.187 and 0.3566 and 4.1.

What about the “Fig. S5h concentration-response data point” value ([6]; M = -6) of the same compound?
Its value is 4.604 and 7.207 and -5.062 and 6.292 and -3.562 and -1.853 and 2.1627 and 6.968 and -3.361.

What about the “Fig. S5h concentration-response data point” value ([6]; M = -7) of the same compound?
The value was 5.516 and -3.12 and 0.3751 and -1.392 and 9.617 and 0.0554 and -3.657 and -2.623 and -4.7725.

And the “Fig. S5h concentration-response data point” value ([6]; M = -8)?
Its value is 2.807 and -9.751 and -4.108 and 4.434 and 1.624 and 11.894 and 1.215 and 7.908 and -0.803.

And the “Fig. S5h concentration-response data point” value ([6]; M = -9)?
The value was 3.672 and 14.0917 and -2.71 and 1.993 and 2.042 and -8.571 and -5.966 and 3.235 and -0.5438.

What about the “Fig. S5h concentration-response data point” value ([6]; M = -10) of the same compound?
The value was 5.694 and 7.45 and -0.02465 and -4.39 and 8.693 and -12.0081 and -1.935 and 3.572 and 2.108.

And the “Fig. S5h concentration-response data point” value ([6]; M = -11)?
Its value is 0.01325 and 7.439 and 24.776 and 1.616 and -6.541 and -6.127 and 16.1632 and 10.3257 and 7.821.
